# Data taken from ChEMBL document CHEMBL1201862, “PubChem BioAssay data set” (2004).
# Calls of active or inactive are those of the source.
# Tests used:
# [1] = NIH-3T3 fibroblast cytotoxicity, dose response, cytotoxicity control, cell-based, fluorescence, Alamar Blue, secondary assay (AID 2327); assay type: functional;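 also: NIH-3T3 mouse fibroblasts cultured with fluconazole at 8 µg/mL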
# [2] = viability of uninfected HEp-2 cells – cell-based, HTS, cytotoxicity control for RSV inhibitor project, dose response (AID 2410); assay type: functional; conditions: human respiratory syncytial virus
# [3] = fluconazole-exposed Candida albicans growth modulators – fluorescence, retest, confirmation (AID 2467); assay type: functional, cell-based
# [4] = target: T1, Sphingosine 1-phosphate receptor 4 (Homo sapiens, UniProt O95977); test: Late stage fluorescence dose response cell-based screening assay for antagonists of the Sphingosine 1-Phosphate Receptor 4 (S1P4). [Related pubchem assays: 1524 (Confirmation screen (S1P4 antagonists).), 1510 (Primary screen (S1P4 antagonists).), 1853 (Summary AID (S1P4 antagonists).), 1692 (Dose response screen (S1P4 antagonists).)]; assay type: functional
# T1 sequence (O95977 whole entry): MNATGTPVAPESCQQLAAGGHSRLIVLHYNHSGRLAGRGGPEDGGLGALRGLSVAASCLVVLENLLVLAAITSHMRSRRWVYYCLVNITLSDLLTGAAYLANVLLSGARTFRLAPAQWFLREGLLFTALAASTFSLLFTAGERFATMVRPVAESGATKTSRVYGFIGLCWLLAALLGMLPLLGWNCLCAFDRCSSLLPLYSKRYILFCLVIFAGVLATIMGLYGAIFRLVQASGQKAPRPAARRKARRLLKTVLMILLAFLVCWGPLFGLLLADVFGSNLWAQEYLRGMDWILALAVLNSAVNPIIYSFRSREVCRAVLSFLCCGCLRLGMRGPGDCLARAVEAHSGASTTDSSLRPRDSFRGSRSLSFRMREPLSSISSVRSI
# [5] = target: T1, Sphingosine 1-phosphate receptor 4; test: Fluorescence dose response cell-based high throughput screening assay for antagonists of the Sphingosine 1-Phosphate Receptor 4 (S1P4). [Related pubchem assays: 1524 (Confirmation in triplicates.), 1510 (Primary screen.)]; assay type: functional
# [6] = target: Sphingosine 1-phosphate receptor 1 (Homo sapiens, UniProt P21453); assay type: functional;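 also: Tango beta-arrestin reporter U2OS cells stimulated with S1P near its EC80; inhibitor potency meaning antagonism of receptor activation by the natural agonist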
# Chain of Sphingosine 1-phosphate receptor 1 (P21453 whole entry): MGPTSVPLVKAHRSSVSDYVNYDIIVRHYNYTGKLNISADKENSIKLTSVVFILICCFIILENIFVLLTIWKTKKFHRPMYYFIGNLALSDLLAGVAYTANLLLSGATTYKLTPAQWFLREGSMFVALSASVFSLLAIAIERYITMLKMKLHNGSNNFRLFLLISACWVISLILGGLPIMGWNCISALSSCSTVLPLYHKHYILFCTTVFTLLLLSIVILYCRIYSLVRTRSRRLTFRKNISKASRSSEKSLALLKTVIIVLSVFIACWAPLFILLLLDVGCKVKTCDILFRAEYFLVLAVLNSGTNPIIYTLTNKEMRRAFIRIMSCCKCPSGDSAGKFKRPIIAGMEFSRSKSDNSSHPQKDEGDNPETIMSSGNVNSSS
# [7] = target: T2, Replicative DNA helicase DnaB (Mycobacterium tuberculosis, UniProt P9WMR3); test: DnaB intein splicing inhibitors, dose response, biochemical, cell-free fluorescence (AID 449749); assay type: functional
# T2 sequence (P9WMR3 whole entry): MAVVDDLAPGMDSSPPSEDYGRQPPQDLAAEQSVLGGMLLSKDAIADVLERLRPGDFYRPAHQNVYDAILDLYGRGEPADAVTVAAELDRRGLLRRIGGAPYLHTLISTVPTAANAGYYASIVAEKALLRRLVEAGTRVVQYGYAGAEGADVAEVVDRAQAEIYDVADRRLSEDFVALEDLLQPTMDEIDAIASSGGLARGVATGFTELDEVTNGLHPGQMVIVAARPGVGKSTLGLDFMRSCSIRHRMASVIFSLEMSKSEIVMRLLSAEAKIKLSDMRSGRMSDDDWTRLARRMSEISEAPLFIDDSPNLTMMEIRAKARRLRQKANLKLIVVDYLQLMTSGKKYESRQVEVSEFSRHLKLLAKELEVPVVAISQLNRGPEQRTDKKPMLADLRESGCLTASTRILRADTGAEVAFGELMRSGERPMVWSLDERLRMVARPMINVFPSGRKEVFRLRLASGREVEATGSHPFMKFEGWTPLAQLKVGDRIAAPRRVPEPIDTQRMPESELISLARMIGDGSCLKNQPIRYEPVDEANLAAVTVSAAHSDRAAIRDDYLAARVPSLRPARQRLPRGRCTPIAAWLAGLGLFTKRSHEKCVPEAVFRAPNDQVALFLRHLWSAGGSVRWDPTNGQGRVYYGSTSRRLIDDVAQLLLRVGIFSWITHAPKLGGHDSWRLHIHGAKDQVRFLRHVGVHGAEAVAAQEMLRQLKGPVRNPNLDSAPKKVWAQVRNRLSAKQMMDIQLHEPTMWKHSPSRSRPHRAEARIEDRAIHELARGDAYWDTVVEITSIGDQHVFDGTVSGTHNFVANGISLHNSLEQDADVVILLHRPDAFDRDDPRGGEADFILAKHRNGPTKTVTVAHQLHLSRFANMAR
# [8] = target: Heat shock protein HSP 90-alpha (Homo sapiens, UniProt P07900); assay type: functional, organism-based
# Protein RecA = target: T3, Protein RecA (Mycobacterium tuberculosis, UniProt P9WHJ3); test: Fluorescence Cell-Free Homogeneous Dose Retest to Identify Inhibitors of RecA-Intein Splicing Activity. [Related pubchem assays (depositor defined):AID2097, AID2223, AID489010, AID492950]; assay type: functional
# T3 sequence (P9WHJ3 whole entry): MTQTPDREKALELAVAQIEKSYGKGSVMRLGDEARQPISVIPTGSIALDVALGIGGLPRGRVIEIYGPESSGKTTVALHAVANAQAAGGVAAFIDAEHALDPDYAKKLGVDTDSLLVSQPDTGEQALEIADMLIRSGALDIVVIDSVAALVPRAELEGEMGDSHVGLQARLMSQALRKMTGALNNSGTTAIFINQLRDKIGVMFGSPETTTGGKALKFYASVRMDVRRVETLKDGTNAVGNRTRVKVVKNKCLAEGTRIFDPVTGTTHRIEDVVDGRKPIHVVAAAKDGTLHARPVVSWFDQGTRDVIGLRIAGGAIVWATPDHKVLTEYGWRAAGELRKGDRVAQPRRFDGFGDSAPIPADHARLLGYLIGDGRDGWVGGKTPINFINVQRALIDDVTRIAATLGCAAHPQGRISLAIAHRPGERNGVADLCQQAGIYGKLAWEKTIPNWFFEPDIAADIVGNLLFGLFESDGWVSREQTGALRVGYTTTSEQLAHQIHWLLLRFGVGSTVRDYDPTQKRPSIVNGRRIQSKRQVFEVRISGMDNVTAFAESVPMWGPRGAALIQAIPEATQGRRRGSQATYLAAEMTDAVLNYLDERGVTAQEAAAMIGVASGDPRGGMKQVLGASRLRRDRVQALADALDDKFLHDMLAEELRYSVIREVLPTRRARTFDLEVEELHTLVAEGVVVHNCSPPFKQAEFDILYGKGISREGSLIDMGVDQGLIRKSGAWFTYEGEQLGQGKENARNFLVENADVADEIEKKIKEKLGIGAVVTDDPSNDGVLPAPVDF
# [9] = Fluorescence-based cell-based high throughput dose response assay for inhibitors of the interaction of nucleotide-binding oligomerization domain containing 2 (NOD2) and the receptor-interacting serine-threonine kinase 2 (RIPK2).; assay type: functional; conditions: Homo sapiens
# Beta Lactamase = Beta Lactamase (Pseudomonas aeruginosa, UniProt Q932Y6); test: BLA reporter interference, concentration series – BLA reporter cells, FRET fluorescence, artefact control for NOD2-RIPK2 interaction inhibitor project, dose response (AID 651552); assay type: functional, cell-based
# Chain of Beta Lactamase (Q932Y6 whole entry): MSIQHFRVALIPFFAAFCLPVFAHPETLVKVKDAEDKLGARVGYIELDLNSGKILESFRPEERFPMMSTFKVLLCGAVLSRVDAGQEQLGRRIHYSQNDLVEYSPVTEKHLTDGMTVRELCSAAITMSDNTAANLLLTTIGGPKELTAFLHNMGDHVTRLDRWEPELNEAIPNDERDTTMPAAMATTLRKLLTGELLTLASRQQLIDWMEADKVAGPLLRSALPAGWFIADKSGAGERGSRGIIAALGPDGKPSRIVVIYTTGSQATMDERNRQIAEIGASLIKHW
# Fatty acid synthase [10] = target: T4, Fatty acid synthase (Homo sapiens, UniProt P49327); test: inhibition of human FAS-TE enzyme activity – biochemical, endpoint fluorescence intensity, uHTS hits, dose response (AID 624327); assay type: functional;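 also: fluorescence from hydrolysis of an O-methyl fluorescein acyl ester substrate by the enzyme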
# T4 sequence (P49327 whole entry): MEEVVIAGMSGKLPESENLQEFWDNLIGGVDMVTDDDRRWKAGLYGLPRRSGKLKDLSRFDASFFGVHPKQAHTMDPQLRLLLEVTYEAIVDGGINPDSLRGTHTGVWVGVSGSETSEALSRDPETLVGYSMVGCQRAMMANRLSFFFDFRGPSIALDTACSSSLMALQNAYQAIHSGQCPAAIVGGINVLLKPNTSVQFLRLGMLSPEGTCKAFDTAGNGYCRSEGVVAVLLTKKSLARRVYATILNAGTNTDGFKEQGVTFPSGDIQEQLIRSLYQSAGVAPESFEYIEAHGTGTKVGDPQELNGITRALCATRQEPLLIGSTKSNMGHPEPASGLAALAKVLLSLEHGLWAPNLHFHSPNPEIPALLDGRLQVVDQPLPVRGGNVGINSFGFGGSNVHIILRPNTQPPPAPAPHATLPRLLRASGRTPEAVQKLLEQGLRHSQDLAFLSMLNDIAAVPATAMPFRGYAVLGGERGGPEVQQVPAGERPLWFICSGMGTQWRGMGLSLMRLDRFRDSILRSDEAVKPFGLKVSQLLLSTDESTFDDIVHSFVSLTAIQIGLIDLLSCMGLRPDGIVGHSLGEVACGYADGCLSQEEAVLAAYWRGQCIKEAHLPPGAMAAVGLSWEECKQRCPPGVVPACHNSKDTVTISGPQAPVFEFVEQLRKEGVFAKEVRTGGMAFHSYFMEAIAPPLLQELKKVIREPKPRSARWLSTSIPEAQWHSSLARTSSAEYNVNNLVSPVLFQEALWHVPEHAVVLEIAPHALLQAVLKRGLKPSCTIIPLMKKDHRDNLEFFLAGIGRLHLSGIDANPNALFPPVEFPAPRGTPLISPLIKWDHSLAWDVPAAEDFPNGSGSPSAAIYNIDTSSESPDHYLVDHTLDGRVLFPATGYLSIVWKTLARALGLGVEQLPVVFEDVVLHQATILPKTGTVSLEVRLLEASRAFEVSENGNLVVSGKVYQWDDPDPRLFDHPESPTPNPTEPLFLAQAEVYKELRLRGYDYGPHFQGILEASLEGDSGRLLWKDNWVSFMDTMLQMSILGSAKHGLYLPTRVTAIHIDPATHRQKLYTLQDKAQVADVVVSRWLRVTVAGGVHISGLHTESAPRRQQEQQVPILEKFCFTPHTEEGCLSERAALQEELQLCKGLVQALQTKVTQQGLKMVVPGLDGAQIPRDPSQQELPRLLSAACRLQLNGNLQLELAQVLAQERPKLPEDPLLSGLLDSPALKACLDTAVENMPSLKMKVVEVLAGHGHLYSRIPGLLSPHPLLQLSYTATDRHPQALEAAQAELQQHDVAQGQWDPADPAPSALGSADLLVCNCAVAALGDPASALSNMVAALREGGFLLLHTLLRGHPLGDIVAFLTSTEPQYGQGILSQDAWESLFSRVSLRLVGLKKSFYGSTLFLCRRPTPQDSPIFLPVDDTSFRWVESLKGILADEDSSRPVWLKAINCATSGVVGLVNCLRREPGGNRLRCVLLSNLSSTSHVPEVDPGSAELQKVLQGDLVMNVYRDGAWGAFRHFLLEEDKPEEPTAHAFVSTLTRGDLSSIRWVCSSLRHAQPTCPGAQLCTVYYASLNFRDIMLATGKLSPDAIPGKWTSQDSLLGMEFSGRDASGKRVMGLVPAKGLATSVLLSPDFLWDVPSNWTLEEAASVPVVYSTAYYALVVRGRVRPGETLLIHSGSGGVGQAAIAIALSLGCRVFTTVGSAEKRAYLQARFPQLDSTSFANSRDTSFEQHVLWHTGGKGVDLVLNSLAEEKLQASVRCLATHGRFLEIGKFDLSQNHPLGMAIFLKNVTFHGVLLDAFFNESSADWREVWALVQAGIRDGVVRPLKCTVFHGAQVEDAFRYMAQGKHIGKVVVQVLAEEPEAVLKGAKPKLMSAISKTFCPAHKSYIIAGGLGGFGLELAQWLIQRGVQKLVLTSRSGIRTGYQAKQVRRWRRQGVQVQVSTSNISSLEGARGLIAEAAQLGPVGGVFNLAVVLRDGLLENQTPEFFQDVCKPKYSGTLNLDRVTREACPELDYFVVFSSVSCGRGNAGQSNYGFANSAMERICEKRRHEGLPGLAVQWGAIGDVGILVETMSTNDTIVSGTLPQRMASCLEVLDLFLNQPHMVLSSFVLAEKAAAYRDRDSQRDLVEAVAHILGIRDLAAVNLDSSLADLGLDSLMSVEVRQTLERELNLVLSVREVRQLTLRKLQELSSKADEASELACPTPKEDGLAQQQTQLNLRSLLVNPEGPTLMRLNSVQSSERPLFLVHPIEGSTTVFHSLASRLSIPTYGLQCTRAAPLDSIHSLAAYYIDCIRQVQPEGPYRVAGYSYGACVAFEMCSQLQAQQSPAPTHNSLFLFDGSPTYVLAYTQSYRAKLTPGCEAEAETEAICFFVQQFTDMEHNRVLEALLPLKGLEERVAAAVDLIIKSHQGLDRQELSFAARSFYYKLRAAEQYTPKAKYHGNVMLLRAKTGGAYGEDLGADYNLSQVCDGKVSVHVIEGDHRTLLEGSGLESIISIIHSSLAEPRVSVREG
# Fatty acid synthase [11] = target: T4, Fatty acid synthase; test: inhibition of human FAS-TE enzyme activity – biochemical, kinetic fluorescence intensity, dose response (AID 624326); assay type: functional;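 also: rate of fluorescence rise from hydrolysis of a fluorogenic O-methyl fluorescein ester substrate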
# Danio rerio = test: In Vivo Angiogenesis Dose-Response Confirmation. [Related pubchem assays: 732 (Assay preceding this confirmatory assay.)]; assay type: functional, organism-based
# [12] = A cytotoxicity screen of small molecule inhibitors of the PhoP region in Salmonella typhi identified in the primary screen. [Related pubchem assays: 1850, 1864, 1985 ]; assay type: functional
# [13] = M. tuberculosis H37Rv growth inhibitors, H37Rv strain (AID 1626); assay type: functional
# [14] = target: Protein-tyrosine kinase 2-beta (Homo sapiens, UniProt Q14289);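 also: potency of inhibitors of PYK2 kinase phosphorylation of poly-GT substrate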
# Chain of Protein-tyrosine kinase 2-beta (Q14289 whole entry): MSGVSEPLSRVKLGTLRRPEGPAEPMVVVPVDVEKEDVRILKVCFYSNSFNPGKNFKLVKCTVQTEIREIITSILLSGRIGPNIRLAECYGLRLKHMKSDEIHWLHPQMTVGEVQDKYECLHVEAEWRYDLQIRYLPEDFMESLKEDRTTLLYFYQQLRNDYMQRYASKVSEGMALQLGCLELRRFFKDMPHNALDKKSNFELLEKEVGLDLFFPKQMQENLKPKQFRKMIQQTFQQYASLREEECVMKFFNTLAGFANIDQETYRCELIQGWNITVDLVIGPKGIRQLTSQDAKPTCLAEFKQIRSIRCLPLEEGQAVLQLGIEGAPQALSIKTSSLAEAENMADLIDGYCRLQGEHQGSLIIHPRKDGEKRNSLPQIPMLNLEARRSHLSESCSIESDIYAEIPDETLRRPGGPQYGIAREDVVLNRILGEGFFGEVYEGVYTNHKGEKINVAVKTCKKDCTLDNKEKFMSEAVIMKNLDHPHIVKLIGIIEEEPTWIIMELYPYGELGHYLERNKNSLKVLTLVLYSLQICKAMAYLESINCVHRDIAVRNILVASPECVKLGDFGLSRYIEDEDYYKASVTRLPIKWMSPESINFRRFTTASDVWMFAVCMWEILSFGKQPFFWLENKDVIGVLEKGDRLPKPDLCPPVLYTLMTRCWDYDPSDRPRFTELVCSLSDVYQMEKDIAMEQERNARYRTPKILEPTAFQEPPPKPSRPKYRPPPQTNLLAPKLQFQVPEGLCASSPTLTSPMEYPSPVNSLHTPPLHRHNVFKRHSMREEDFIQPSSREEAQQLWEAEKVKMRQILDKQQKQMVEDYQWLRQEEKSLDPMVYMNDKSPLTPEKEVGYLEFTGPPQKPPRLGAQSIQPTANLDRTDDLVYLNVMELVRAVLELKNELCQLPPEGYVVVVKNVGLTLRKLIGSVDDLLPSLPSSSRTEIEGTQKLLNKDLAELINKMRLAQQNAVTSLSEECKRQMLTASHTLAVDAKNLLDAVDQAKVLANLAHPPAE
# [15] = target: T5, Polyadenylate-binding protein 1 (Homo sapiens, UniProt P11940); test: MLLE binding blockers, Cy5 peptide tracer – biochemical, fluorescence polarization, Cy5-PAM2 peptide, secondary, miRNA deadenylation inhibitor project, dose response (AID 602260); assay type: functional; conditions: read-out: IC50_Mean
# T5 sequence (P11940 whole entry, the tested form may be a part): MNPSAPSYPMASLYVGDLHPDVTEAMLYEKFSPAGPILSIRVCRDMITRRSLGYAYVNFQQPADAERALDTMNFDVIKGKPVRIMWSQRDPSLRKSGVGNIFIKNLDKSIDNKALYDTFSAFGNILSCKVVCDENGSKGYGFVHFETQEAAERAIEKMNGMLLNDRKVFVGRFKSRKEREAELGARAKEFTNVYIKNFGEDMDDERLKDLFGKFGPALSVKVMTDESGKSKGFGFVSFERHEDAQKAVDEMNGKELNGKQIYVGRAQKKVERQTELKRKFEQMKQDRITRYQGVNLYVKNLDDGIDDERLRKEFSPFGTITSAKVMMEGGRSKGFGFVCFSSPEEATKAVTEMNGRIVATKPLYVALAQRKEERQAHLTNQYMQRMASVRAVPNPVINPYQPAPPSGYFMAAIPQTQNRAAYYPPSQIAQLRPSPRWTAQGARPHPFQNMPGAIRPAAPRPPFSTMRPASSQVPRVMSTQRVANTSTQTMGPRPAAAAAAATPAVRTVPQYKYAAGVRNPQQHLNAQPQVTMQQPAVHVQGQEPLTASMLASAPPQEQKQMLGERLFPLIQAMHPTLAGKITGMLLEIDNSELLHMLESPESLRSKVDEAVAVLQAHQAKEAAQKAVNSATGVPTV
# [16] = target: T5, Polyadenylate-binding protein 1; test: MLLE domain peptide-binding blockers, IC50 – biochemical, fluorescence polarization, FITC-PAM2 peptide, dose response (AID 602259); assay type: functional; conditions: read-out: IC50_Mean
compound,measurement,setting,value
O=C(Nc1ccccc1)c1nnsc1S(=O)(=O)c1ccc(Cl)cc1,EC50,[1],9.03 µM (active)
same,CC50,[2],13.4 µM (active)
same,EC50,[3],> 38 µM (not active)
same,IC50,[4],11.2 µM (not active)
same,IC50,[5],1.04 µM (active)
same,IC50,[6],23.4 µM (not active)
same,AC50,[7],3.53 µM (active)
same,AC50,[8],0.293 µM (active)
same,EC50,Protein RecA,5.71 µM (active)
same,IC50,[9],3.5 µM (active)
same,IC50,Beta Lactamase,18.8 µM (inactive)
same,IC50,Fatty acid synthase [10],8 µM (active)
same,IC50,Fatty acid synthase [11],5.14 µM (active)
Cc1ccc2c(c1)/C(=C1/Nc3ccc(Br)cc3/C1=N\OCCN1CCNCC1)C(=O)N2,IC50,Danio rerio,3.28 µM (not active)
Cc1cc(C(=O)Cn2cncn2)c(C)n1CCc1ccc(F)cc1,EC50,[12],> 50 µM (active)
same,IC50,[13],> 100 µM (active)
CCOC(=O)CSc1nc(C2CC2)nc2ccccc12,IC50,[14],> 69.5 µM (not active)
same,IC50,[15],> 66 µM (inactive)
same,IC50,[16],> 66 µM (inactive)
